Reference: patent publication US10011573B2, “Human androgen receptor DNA-binding domain (DBD) compounds as therapeutics and methods for their use” (The University of British Columbia, priority 2014, dated 2018)
“Also recorded” adds a separate entry of the source.

Tests used:
AR AF1 = assay: AF1 assay (CREB and Gal4 plasmid in PC3 cells); type: cell-based
Excerpt: As there are other known binding sites in AR including the hormone binding site (HBS), activation function-2 (AF2) site, binding function 3 (BF3) and N-terminal activation function-1 (AF1) site, we utilized other assays to rule out possible binding to those sites. […] Then we used an AF1 assay to measure whether the potency of this compound comes from the inhibition of AF1 transactivation.

[1] = molecular target: AR ligand binding domain (LBD) (Homo sapiens, UniProt P10275); assay: Biolayer interferometry (BLI) assay, small molecule binding to AR
Method: 4. Biolayer interferometry (BLI) assay: The direct reversible interaction between small molecules and the AR was measured as previously described (Lack, Axerio-Cilies et al. 2011).

AR AF2 site = AR AF2 site (Homo sapiens, UniProt P10275); assay: SRC2-3 peptide displacement assay (fluorescence polarization); type: binding
Method: 6. SRC2-3 peptide displacement assay: The AR AF2 specific peptide displacement was assayed as previously described.

[2] = molecular target: T1, AR hormone binding site (recombinant wild type LBD) (Rattus norvegicus, UniProt P15207); assay: Androgen displacement assay (Polar Screen Androgen Receptor Competitor Green Assay Kit)
T1 construct: displace DHT from the ABS site of recombinant wild type LBD
T1 sequence (P15207 651-882 limits assumed): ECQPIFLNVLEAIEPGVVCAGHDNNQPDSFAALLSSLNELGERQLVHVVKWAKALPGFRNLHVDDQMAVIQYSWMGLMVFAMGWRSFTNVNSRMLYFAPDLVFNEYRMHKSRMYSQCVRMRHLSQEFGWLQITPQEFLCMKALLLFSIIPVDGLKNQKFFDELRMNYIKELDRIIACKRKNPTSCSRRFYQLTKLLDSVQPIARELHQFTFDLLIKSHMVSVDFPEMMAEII
Method: 5. Androgen displacement assay: The androgen displacement was assessed with the Polar Screen Androgen Receptor Competitor Green Assay Kit as per the instructions of the manufacturer (Lack, Axerio-Cilies et al. 2011).
The ability of the above chemicals to displace DHT from the ABS site of recombinant wild type LBD was measured using a fluorescent polarization assay (PolarScreen™, Life Technologies) at various concentrations.

[3] = test system: MDV3100-resistant LNCaP cells (MR49F); assay: Cell viability (MTS) assay, MDV3100 (Enzalutamide)-resistant cells; type: cell-based, human; conditions: 0.1 nM R1881
Method: 1. Cell Culture: LNCaP and PC3 human prostate cancer cells were obtained from American Type Culture Collection (ATCC, Manassas, Va.) and grown in RPMI 1640 medium supplemented with 5% fetal bovine serum (FBS) (Invitrogen). […]. All cells were maintained at 37° C. in 5% CO2.
7. Cell viability assay: The PC3, LNCaP, and MDV3100-resistant cells were plated at 3,000 cells per well in RPMI 1640 containing 5% charcoal stripped serum (CSS) in a 96-well plate, treated with 0.1 nM R1881 and compounds (0-25 μM) for 96 hrs.

YFP-AR = molecular target: T2, YFP-AR (Homo sapiens, UniProt P10275); assay: Luciferase assay with YFP-AR in PC3 cells; type: cell-based
T2 construct: plasmids encoding YFP-tagged full-length AR (yellow fluorescent protein, YFP-AR); expressed in transfected cells; host or cells: PC3
T2 sequence (P10275 1-920): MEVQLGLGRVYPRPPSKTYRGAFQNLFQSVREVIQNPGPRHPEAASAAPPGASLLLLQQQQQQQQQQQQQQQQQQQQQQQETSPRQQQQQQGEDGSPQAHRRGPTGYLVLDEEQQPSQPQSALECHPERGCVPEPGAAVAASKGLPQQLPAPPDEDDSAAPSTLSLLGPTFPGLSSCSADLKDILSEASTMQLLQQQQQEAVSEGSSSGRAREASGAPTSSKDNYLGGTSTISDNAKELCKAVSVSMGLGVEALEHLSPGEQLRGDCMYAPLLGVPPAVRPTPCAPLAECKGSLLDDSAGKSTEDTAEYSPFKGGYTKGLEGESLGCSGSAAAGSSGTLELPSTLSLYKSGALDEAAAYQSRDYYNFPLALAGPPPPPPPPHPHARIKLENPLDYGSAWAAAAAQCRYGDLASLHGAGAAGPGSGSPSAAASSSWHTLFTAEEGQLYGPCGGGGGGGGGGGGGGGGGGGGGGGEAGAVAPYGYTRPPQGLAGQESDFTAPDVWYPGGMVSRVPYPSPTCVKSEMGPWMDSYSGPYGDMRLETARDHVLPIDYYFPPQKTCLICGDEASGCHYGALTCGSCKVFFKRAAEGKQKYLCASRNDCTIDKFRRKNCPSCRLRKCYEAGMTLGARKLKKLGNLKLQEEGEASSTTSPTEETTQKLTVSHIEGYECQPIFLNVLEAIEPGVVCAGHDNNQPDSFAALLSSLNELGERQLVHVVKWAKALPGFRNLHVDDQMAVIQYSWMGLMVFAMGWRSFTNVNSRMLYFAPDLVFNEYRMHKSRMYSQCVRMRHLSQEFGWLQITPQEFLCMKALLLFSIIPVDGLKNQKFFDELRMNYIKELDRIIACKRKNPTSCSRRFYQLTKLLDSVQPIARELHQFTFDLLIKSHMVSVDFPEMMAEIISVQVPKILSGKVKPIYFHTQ
Excerpt: the underlined primer sections anneal to the specified template, although their 5′-extensions (italicized) are complementary to the corresponding primer sequence of the other PCR. Plasmid assembly is achieved by mixing the PCR products from each reaction (Klock, H. E. et al. (2008) Combining the polymerase incomplete primer extension method for cloning and mutagenesis with microscreening to accelerate structural genomics efforts. Proteins 71, 982-994), followed by transformation into chemically competent bacteria. A similar strategy was used to clone the AR-DBD+hinge into the Pan4 vector (avidity) expressing the N-terminal biotinylation sequence ([…] ) and C-terminal His tag. YFP-AR plasmid was a gift from Dr. Jan Trapman (van Royen, M. E. et al. (2012) Stepwise androgen receptor dimerization. J. Cell Sci. 125, 1970-1979) and is based on pEYFP-C1 (Clontech™). YFP-V7 was constructed by polymerase incomplete primer extension method using the following primers and templates: AR-V7 insert from pcDNA3. AR-V7 template

[4] = molecular target: T3, AR binding to PSA and FKBP5 enhancer (Homo sapiens, UniProt P10275, T878A); assay: Chromatin immunoprecipitation (ChIP) in LNCaP cells; type: cell-based; conditions: R1881, 24 h
T3 construct: endogenous in cells; host or cells: LNCaP (LN-ARR2PB-eGFP reporter line for A1; parental LNCaP for ChIP)
T3 sequence (P10275 whole entry T878A): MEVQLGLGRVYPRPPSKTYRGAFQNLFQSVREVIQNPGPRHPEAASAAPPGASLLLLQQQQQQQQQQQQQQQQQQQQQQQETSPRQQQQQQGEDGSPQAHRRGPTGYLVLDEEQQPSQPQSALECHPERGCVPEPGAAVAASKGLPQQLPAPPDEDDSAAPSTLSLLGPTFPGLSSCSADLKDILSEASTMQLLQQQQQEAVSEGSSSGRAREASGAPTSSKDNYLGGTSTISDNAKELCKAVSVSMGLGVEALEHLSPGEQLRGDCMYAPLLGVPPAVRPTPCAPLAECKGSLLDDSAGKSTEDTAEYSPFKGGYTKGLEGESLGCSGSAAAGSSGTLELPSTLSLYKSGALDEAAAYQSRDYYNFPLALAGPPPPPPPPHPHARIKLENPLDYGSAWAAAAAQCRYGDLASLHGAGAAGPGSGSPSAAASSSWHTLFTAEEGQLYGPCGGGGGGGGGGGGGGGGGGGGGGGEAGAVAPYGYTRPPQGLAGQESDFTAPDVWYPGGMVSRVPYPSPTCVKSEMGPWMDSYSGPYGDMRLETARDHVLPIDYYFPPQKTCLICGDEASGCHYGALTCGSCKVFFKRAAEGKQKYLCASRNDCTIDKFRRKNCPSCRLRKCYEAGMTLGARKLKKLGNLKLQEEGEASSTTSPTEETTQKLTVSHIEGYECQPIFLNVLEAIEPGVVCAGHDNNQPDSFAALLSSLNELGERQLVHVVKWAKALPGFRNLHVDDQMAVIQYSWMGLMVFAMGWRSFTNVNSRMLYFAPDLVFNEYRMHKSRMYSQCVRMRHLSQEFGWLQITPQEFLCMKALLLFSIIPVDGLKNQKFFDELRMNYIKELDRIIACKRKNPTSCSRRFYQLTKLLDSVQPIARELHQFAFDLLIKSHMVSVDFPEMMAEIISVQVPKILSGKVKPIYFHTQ

LNCaP xenograft = assay: Castration-resistant LNCaP xenografts in mice; conditions: 100 mg/kg i.p. twice daily, 4 weeks
AR target genes = assay: Microarray genetic profile in LNCaP cells
Stability in media = type: physicochemical

| SMILES | inhibition of CREB and Gal4 (AF1) (AR AF1) | binding in the C-terminal LBD (BLI) [1] | displacement of peptide in the AF2 binding site (AR AF2 site) | androgen displacement from AR HBS [2] | inhibition of cell growth, MDV3100/Enzalutamide-resistant cells [3] | inhibition of YFP-AR driven luciferase expression (YFP-AR) | AR pulldown of the PSA and FKBP5 enhancer [4] | toxic effect on animals (LNCaP xenograft) | LNCaP xenograft tumor volume (LNCaP xenograft; castrated mice, 100 mg/kg) | serum PSA (LNCaP xenograft; castrated mice, 100 mg/kg) | change of expression of genotoxin-responsive genes (AR target genes; 31 genes) | FKBP5 gene expression fold change vs R1881 treatment only (AR target genes; 14449 400 nM + 1 nM R1881, 24 h, p 0.08) | ATF3 gene expression fold change (AR target genes; 14449 400 nM + R1881) | CASP1 gene expression fold change (AR target genes; 14449 400 nM + R1881) | XPC gene expression fold change (AR target genes; 14449 400 nM + R1881) | stability in media (Stability in media) |
| --- | --- | --- | --- | --- | --- | --- | --- | --- | --- | --- | --- | --- | --- | --- | --- | --- |
| c1ccc(-c2csc(N3CCOCC3)n2)cc1 [Compound 14228, 4-(4-phenylthiazol-2-yl)morpholine] | no inhibition | no binding | Neither does it displace the peptide | does not displace androgen | strongly inhibits | could be inhibited |  |  |  |  |  |  |  |  |  |  |
| Brc1ncn(-c2csc(N3CCOCC3)n2)c1Br [Compound 14449] |  |  |  |  |  | could be inhibited | reduced AR pulldown | no observable toxic effect | reduces tumor volume; also recorded: inhibited to levels comparable with enzalutamide treatment | abolishes PSA production; also recorded: inhibited to levels comparable with enzalutamide treatment | None of the genotoxin-responsive genes showed any significant change | 0.81 | 0.99 | 1.00 | 1.03 | fully stable in media |
